PubChem BioAssay AID2060332 (Molecular Pharmacology Branch, DTP, NCI, 2025)

Tested on: LG0567-F671-PDC multi-cell spheroid viability
Test: Anticancer human tumor LG0567-F671-PDC patient-derived lung adenocarcinoma cell line growth inhibition [IpAb]
Details: for IC50: curve of first compound; for viability, T/C: stronger effect = lower value; active = viability on the fitted dose curve at most 10% of control; inactive = the rest
Source text: Combinatorial screen of targeted agents with ipatasertib and abemaciclib in multi-cell type tumor spheroids
A high-throughput screen of multi-cell type tumor spheroids was designed to identify active combinations of targeted small molecules and ipatasertib or abemaciclib. Complex spheroids include a stromal component modeled by human endothelial cells (HUVEC) and fibroblasts modeled by human mesenchymal stem cells (MSCs). The concentration ranges selected for each drug and investigational agent were based upon clinically achievable concentrations if the clinical Cmax of the agent was known.
Compounds. The drugs and investigational agents: ipatasertib (NSC767898), abemaciclib(NSC768073), selumetinib (NSC741078), trametinib (758246), adavosertib (NSC754352), everolimus (NSC733504), sapanisertib (NSC764658), vemurafenib (NSC761431), venetoclax (NSC766270), copanlisib (NSC809693), apelisib (NSC765974), palbociblib (NSC758247), vemurafenib (NSC761431), dabrafenib (NSC764134), ravoxertinib (NSC781343), BMS-387032 (NSC767048), sotorasib (NSC818433), talazoparib (NSC767125) and afursertib (NSC778305), were obtained from the National Cancer Institute (NCI) Developmental Therapeutics Program Chemical Repository. The FDA-approved anticancer drug set is available from the NCI Developmental Therapeutics Program. […] The stock solutions were prepared in dimethyl sulfoxide (DMSO, Sigma-Aldrich, St. Louis, MO, cat. D2650) at 800-fold the tested concentration and stored at -70 degrees C prior to their use. All drugs and investigational agents were tested over a range starting from a high concentration at or near the clinical Cmax and decreasing in half-log increments. If the clinical Cmax for an agent had not been determined, the highest concentration tested was 10 microM.
NCI60 Cell Culture. NCI60 cell lines were obtained from the NCI Developmental Therapeutics Program Tumor Repository. For each lot of cells, the Repository performed Applied Biosystems AmpFLSTR Identifiler testing with PCR amplification to confirm consistency with the published Identifier STR profile for each cell line. Cells were kept in continuous culture for no more than 20 passages. The optimal seeding densities for each of the cell lines at each time point assessed were determined prior to performing the concentration response studies. Briefly, the NCI60 human tumor lines were grown as monolayers in RPMI 1640 medium supplemented with 10% FBS and 2 mmol/L L-glutamine.
An additional 9 lines were from the NCI60 cell line panel including MDA-MB-231 breast carcinoma, MDA-MB-468 breast carcinoma, MCF7 breast carcinoma, Hs578T breast carcinoma, MALME-3M melanoma, SK-MEL-2 melanoma, SK-OV-3 ovarian carcinoma, DU-145 prostate carcinoma, PC-3 prostate carcinoma, all cell lines along with major genetic alterations are listed on Table 2. Pooled donor human umbilical vein endothelial cells (HUVEC, Lonza, cat. CC-2519) and human mesenchymal stem cells (hMSC, Lonza, cat. PT-2501) were purchased from Lonza (Walkersville, MD).
PDMR cell lines were grown in complete medium (DC medium): Dulbecco's modified Eagle's medium (DMEM)/F12 supplemented with 5% fetal bovine serum (FBS), 2 mM L-glutamine, 100 U/mL penicillin and 100 µg/ml streptomycin, 0.4 µg/ml hydrocortisone, 10 ng/ml epidermal growth factor (EGF) recombinant human protein, 24 µg/mL adenine, and 0.1 mg/mL primocin. During culture from frozen stock vials, PDMR cells were cultured in the same medium containing 10 µM Y-27632 (see Table 3). The PDCs were cultured in complete DMEM/F12 media without 10 microM Y-27632 dihydrochloride for at least two passages prior to the screen. The pooled donor HUVEC and hMSC were cultured in endothelial cell growth medium 2 (PromoCell, Heidelberg, Germany, cat. C-22011) and mesenchymal stem cell growth medium 2 (PromoCell, cat. C-28009), respectively. For all experiments, HUVEC and hMSC were used at passages </=5.
[…]

[1] = second compound 0.1 µM, first compound 0.0316 µM
[2] = second compound 0.1 µM, first compound 0.1 µM
[3] = second compound 0.1 µM, first compound 0.316 µM
[4] = second compound 0.1 µM, first compound 1 µM
[5] = second compound 0.316 µM, first compound 0.0316 µM
[6] = second compound 0.316 µM, first compound 0.1 µM
[7] = second compound 0.316 µM, first compound 0.316 µM
[8] = second compound 0.316 µM, first compound 1 µM
[9] = second compound 1 µM, first compound 0.0316 µM
[10] = second compound 1 µM, first compound 0.1 µM
[11] = second compound 1 µM, first compound 0.316 µM
[12] = second compound 1 µM, first compound 1 µM
[13] = second compound 3.16 µM, first compound 0.0316 µM
[14] = second compound 3.16 µM, first compound 0.1 µM
[15] = second compound 3.16 µM, first compound 0.316 µM
[16] = second compound 3.16 µM, first compound 1 µM
[17] = second compound 10 µM, first compound 0.0316 µM
[18] = second compound 10 µM, first compound 0.1 µM
[19] = second compound 10 µM, first compound 0.316 µM
[20] = second compound 10 µM, first compound 1 µM
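Also: viability read after 7 days of drug exposure.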
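For viability, T/C in this document: 100% = DMSO vehicle control luminescence.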

CC(=O)c1c(C)c2cnc(Nc3ccc(N4CCNCC4)cn3)nc2n(C2CCCC2)c1=O + CC(C)NCC(C(=O)N1CCN(c2ncnc3c2C(C)CC3O)CC1)c1ccc(Cl)cc1
> 300 nM: IC50 (second compound 0.1 µM) | IC50 (second compound 0.316 µM) | IC50 (second compound 1 µM) | IC50 (second compound 3.16 µM) | IC50 (second compound 10 µM)
inactive: viability, T/C (second compound 0.1 µM, first compound 0.000949 µM) 89.3% | viability, T/C (second compound 0.1 µM, first compound 0.003 µM) 84.7% | viability, T/C (second compound 0.1 µM, first compound 0.00949 µM) 68.9% | viability, T/C (second compound 0.1 µM, first compound 0.03 µM) 69.5% | viability, T/C (second compound 0.1 µM, first compound 0.0949 µM) 67.7% | viability, T/C (second compound 0.1 µM, first compound 0.3 µM) 75.6% | viability, T/C (second compound 0.316 µM, first compound 0.000949 µM) 66.5% | viability, T/C (second compound 0.316 µM, first compound 0.003 µM) 71.5% | viability, T/C (second compound 0.316 µM, first compound 0.00949 µM) 69.7% | viability, T/C (second compound 0.316 µM, first compound 0.03 µM) 61.3% | viability, T/C (second compound 0.316 µM, first compound 0.0949 µM) 58.1% | viability, T/C (second compound 0.316 µM, first compound 0.3 µM) 62.5% | viability, T/C (second compound 1 µM, first compound 0.000949 µM) 76.3% | viability, T/C (second compound 1 µM, first compound 0.003 µM) 73.6% | viability, T/C (second compound 1 µM, first compound 0.00949 µM) 78.9% | viability, T/C (second compound 1 µM, first compound 0.03 µM) 66% | viability, T/C (second compound 1 µM, first compound 0.0949 µM) 63.1% | viability, T/C (second compound 1 µM, first compound 0.3 µM) 75.2% | viability, T/C (second compound 3.16 µM, first compound 0.000949 µM) 61.2% | viability, T/C (second compound 3.16 µM, first compound 0.003 µM) 80.1% | viability, T/C (second compound 3.16 µM, first compound 0.00949 µM) 74.2% | viability, T/C (second compound 3.16 µM, first compound 0.03 µM) 69.1% | viability, T/C (second compound 3.16 µM, first compound 0.0949 µM) 68.4% | viability, T/C (second compound 3.16 µM, first compound 0.3 µM) 69.2% | viability, T/C (second compound 10 µM, first compound 0.000949 µM) 71.7% | viability, T/C (second compound 10 µM, first compound 0.003 µM) 84.8% | viability, T/C (second compound 10 µM, first compound 0.00949 µM) 79.3% | viability, T/C (second compound 10 µM, first compound 0.03 µM) 59.6% | viability, T/C (second compound 10 µM, first compound 0.0949 µM) 60.3% | viability, T/C (second compound 10 µM, first compound 0.3 µM) 58.4%

COc1c(OCCCN2CCOCC2)ccc2c3n(c(=NC(=O)c4cnc(N)nc4)nc12)CCN3 + CC(C)NCC(C(=O)N1CCN(c2ncnc3c2C(C)CC3O)CC1)c1ccc(Cl)cc1
6.24 nM: IC50 (second compound 10 µM)
22.4 nM: IC50 (second compound 3.16 µM)
43.4 nM: IC50 (second compound 0.316 µM)
53.7 nM: IC50 (second compound 0.1 µM)
11.8 nM: IC50 (second compound 1 µM)
inactive: viability, T/C (second compound 0.1 µM, first compound 0.00316 µM) 99.6% | viability, T/C (second compound 0.1 µM, first compound 0.01 µM) 85.8% | viability, T/C [1] 54.7% | viability, T/C [2] 44% | viability, T/C [3] 32.2% | viability, T/C [4] 29.4% | viability, T/C (second compound 0.316 µM, first compound 0.00316 µM) 82.8% | viability, T/C (second compound 0.316 µM, first compound 0.01 µM) 75.8% | viability, T/C [5] 47.4% | viability, T/C [6] 42.6% | viability, T/C [7] 28.5% | viability, T/C [8] 19.9% | viability, T/C (second compound 1 µM, first compound 0.00316 µM) 72.7% | viability, T/C (second compound 1 µM, first compound 0.01 µM) 49.8% | viability, T/C [9] 41% | viability, T/C [10] 30% | viability, T/C [11] 30.5% | viability, T/C [12] 22.6% | viability, T/C (second compound 3.16 µM, first compound 0.00316 µM) 71.4% | viability, T/C (second compound 3.16 µM, first compound 0.01 µM) 58.5% | viability, T/C [13] 46.5% | viability, T/C [14] 34.5% | viability, T/C [15] 26.7% | viability, T/C [16] 18.4% | viability, T/C (second compound 10 µM, first compound 0.00316 µM) 57.3% | viability, T/C (second compound 10 µM, first compound 0.01 µM) 42.2% | viability, T/C [17] 39% | viability, T/C [18] 30.9% | viability, T/C [19] 18.9% | viability, T/C [20] 18.8%

Cc1nc(NC(=O)N2CCCC2C(N)=O)sc1-c1ccnc(C(C)(C)C(F)(F)F)c1 (stereo not given) + CC(C)NCC(C(=O)N1CCN(c2ncnc3c2C(C)CC3O)CC1)c1ccc(Cl)cc1
341 nM: IC50 (second compound 3.16 µM)
924 nM: IC50 (second compound 0.316 µM)
inactive: viability, T/C [1] 85.3% | viability, T/C [2] 86.2% | viability, T/C [3] 71% | viability, T/C [4] 42.8% | viability, T/C (second compound 0.1 µM, first compound 3.16 µM) 72% | viability, T/C (second compound 0.1 µM, first compound 10 µM) 39.7% | viability, T/C [5] 63.8% | viability, T/C [6] 72% | viability, T/C [7] 44.2% | viability, T/C [8] 56.8% | viability, T/C (second compound 0.316 µM, first compound 3.16 µM) 40.2% | viability, T/C (second compound 0.316 µM, first compound 10 µM) 35.9% | viability, T/C [9] 66.1% | viability, T/C [10] 68.2% | viability, T/C [11] 46.2% | viability, T/C [12] 34.2% | viability, T/C (second compound 1 µM, first compound 3.16 µM) 35.6% | viability, T/C (second compound 1 µM, first compound 10 µM) 29.8% | viability, T/C [13] 56% | viability, T/C [14] 50.9% | viability, T/C [15] 48.7% | viability, T/C [16] 44.5% | viability, T/C (second compound 3.16 µM, first compound 3.16 µM) 41.1% | viability, T/C (second compound 3.16 µM, first compound 10 µM) 21.4% | viability, T/C [17] 50.5% | viability, T/C [18] 53.1% | viability, T/C [19] 38.6% | viability, T/C [20] 46.2% | viability, T/C (second compound 10 µM, first compound 3.16 µM) 37.8% | viability, T/C (second compound 10 µM, first compound 10 µM) 25.8%
5190 nM: IC50 (second compound 0.1 µM)
< 31.6 nM: IC50 (second compound 10 µM)
257 nM: IC50 (second compound 1 µM)
